Data on nine compounds can be found in patent US10385024B2, “Compounds and methods for inhibiting NHE-mediated antiport in the treatment of disorders associated with fluid retention or salt overload and gastrointestinal tract disorders” (Ardelyx, Inc., priority 2012, dated 2019).

Experiment [1] deals with T1, human NHE-3 (Homo sapiens, UniProt P48764).
T1 construct: expressed in transfected cells; host or cells: Opossum kidney (OK) cells (ATCC), transfected by electroporation
T1 sequence (P48764 26-834): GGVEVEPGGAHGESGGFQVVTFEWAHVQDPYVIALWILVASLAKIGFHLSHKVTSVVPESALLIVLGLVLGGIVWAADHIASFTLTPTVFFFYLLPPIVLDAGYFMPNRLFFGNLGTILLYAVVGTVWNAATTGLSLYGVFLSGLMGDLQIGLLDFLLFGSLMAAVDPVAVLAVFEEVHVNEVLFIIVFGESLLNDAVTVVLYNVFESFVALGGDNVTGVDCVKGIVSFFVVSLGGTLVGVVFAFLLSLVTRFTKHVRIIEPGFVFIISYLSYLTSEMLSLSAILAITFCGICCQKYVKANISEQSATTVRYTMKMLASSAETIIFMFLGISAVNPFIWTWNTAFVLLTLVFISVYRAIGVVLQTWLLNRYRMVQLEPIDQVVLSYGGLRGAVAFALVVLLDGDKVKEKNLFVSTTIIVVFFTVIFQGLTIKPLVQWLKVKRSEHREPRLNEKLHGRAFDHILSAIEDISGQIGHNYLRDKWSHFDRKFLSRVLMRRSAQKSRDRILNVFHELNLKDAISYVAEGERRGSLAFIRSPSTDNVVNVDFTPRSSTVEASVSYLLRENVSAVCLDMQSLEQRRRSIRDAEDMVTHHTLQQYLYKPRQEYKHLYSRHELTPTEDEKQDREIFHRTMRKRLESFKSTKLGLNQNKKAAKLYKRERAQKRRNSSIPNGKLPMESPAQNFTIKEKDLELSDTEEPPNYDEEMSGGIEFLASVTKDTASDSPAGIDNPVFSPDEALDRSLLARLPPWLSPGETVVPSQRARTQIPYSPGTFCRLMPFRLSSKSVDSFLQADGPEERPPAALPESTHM
As to the kind of experiment: Cell-based assay of NHE-3 activity (human NHE3 inhibition assay). The following applies: OK cells with human NHE-3 gene, BCECF pH dye, 0-30 μM test compound; for IC50: read-out: Human NHE3 pIC50 (converted). On the procedure:
(§1) Rat or human NHE-3-mediated Na^+-dependent H^+ antiport was measured using a modification of the pH sensitive dye method originally reported by Paradiso (Proc. Natl. Acad. Sci. USA. (1984) 81(23): 7436-7440). Opossum kidney (OK) cells were obtained from the ATCC and propagated per their instructions. The rat NHE-3 gene (GenBank M85300) or the human NHE-3 gene (GenBank NM_004174.1) was introduced into OK cells via electroporation, and cells were seeded into 96 well plates and grown overnight. Medium was aspirated from the wells, cells were washed twice with NaCl-HEPES buffer (100 mM NaCl, 50 mM HEPES, 10 mM glucose, 5 mM KCl, 2 mM CaCl2, 1 mM MgCl2, pH 7.4), then incubated for 30 min at room temperature with NH4Cl-HEPES buffer (20 mM NH4Cl, 80 mM NaCl, 50 mM HEPES, 5 mM KCl, 2 mM CaCl2, 1 mM MgCl2, pH 7.4) containing 5 μM bis(acetoxymethyl) 3,3′-(3′,6′-bis(acetoxymethoxy)-5-((acetoxymethoxy)carbonyl)-3-oxo-3H-spiro[isobenzofuran-1,9′-xanthene]-2′,7′-diyl)dipropanoate (BCECF-AM). Cells were washed twice with Ammonium free, Na^+-free HEPES (100 mM choline, 50 mM HEPES, 10 mM glucose, 5 mM KCl, 2 mM CaCl2, 1 mM MgCl2, pH 7.4) and incubated in the same buffer for 10 minutes at room temperature to lower intracellular pH. […] Initial rates were plotted as the average 2 or more replicates, and pIC50 values were estimated using GraphPad Prism.

Experiment [2] deals with T2, Rat NHE-3 (Rattus norvegicus, UniProt P26433).
T2 construct: expressed in transfected cells; host or cells: Opossum kidney (OK) cells (ATCC), transfected by electroporation
Briefly: Cell-based assay of NHE-3 activity (rat NHE-3 prompt inhibition). The following applies: OK cells with rat NHE-3 gene, compound present during pH recovery; for IC50: read-out: Rat NHE3 pIC50 (prompt) (converted). On the procedure:
as §1

The target in experiment [3] is T2, Rat NHE-3. As to the kind of experiment: Cell-based assay of NHE-3 activity (persistent inhibition, after washout). The following applies: OK cells with rat NHE-3 gene, 60 min incubation, recovery initiated 40 min after compound washout; for IC50: read-out: Rat NHE3 pIC50 (persistent) (converted). On the procedure: The ability of compounds to inhibit Rat NHE-3-mediated Na^+-dependent H^+ antiport after application and washout was measured using a modification of the pH sensitive dye method described above in Example 74. Opossum kidney (OK) cells were obtained from the ATCC and propagated per their instructions. The rat NHE-3 gene was introduced into OK cells via electroporation, and cells were seeded into 96 well plates and grown overnight. Medium was aspirated from the wells, cells were washed twice with NaCl-HEPES buffer (100 mM NaCl, 50 mM HEPES, 10 mM glucose, 5 mM KCl, 2 mM CaCl2, 1 mM MgCl2, pH 7.4), then overlayed with NaCl-HEPES buffer containing 0-30 μM test compound. After a 60 min incubation, the test drug containing buffer was aspirated from the cells, cells were washed twice with NaCl-HEPES buffer without drug, then incubated for 30 min at room temperature with NH4Cl-HEPES buffer (20 mM NH4Cl, 80 mM NaCl, 50 mM HEPES, 5 mM KCl, 2 mM CaCl2, 1 mM MgCl2, pH 7.4) containing 5 μM BCECF-AM. Cells were washed twice with ammonium free, Na^+-free HEPES (100 mM choline, 50 mM HEPES, 10 mM glucose, 5 mM KCl, 2 mM CaCl2, 1 mM MgCl2, pH 7.4) and incubated in the same buffer for 10 minutes at room temperature to lower intracellular pH. […] Initial rates were plotted as the average 2 or more replicates, and pIC50 values were estimated using GraphPad Prism.

T2 sequence (P26433 29-831): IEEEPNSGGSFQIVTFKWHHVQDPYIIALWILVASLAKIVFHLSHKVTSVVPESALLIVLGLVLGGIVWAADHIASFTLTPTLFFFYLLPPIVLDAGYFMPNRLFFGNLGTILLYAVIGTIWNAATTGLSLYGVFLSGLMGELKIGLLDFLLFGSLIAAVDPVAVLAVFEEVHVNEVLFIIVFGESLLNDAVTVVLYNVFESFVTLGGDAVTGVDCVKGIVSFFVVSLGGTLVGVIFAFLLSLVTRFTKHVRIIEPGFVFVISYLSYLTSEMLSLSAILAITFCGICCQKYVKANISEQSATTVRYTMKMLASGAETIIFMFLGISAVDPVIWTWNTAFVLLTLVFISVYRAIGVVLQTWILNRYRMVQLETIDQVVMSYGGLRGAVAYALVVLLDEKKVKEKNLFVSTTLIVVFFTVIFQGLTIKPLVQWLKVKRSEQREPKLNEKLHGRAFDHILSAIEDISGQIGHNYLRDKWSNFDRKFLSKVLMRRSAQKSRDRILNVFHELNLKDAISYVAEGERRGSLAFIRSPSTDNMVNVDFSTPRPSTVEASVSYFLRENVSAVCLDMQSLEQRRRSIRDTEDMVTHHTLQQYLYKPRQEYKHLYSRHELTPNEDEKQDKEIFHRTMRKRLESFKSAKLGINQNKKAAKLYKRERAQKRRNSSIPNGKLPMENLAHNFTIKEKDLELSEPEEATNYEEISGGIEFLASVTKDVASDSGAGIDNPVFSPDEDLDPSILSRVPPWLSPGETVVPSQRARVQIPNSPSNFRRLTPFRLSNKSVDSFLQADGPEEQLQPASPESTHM

As for `CN1Cc2c(Cl)cc(Cl)cc2[C@H](c2cccc(S(=O)(=O)NCCOCCOCCOCCNC(=O)CN(CC(=O)NCCOCCOCCOCCNS(=O)(=O)c3cccc([C@@H]4CN(C)Cc5c(Cl)cc(Cl)cc54)c3)[C@@H]3CCCC[C@H]3N(CC(=O)NCCOCCOCCOCCNS(=O)(=O)c3cccc([C@@H]4CN(C)Cc5c(Cl)cc(Cl)cc54)c3)CC(=O)NCCOCCOCCOCCNS(=O)(=O)c3cccc([C@@H]4CN(C)Cc5c(Cl)cc(Cl)cc54)c3)c2)C1` [Example 48], the “Human NHE3 pIC50” value in experiment [1] is “C (C NHE3 pIC50 > 7)”. In experiment [2], the “Rat NHE3 pIC50 (prompt)” value is recorded as “B (B NHE3 pIC50 5-7)”. The “Rat NHE3 pIC50 (persistent)” value in experiment [3] is on record as “C (C NHE3 pIC50 > 7)”.

Take `CN1Cc2c(Cl)cc(Cl)cc2[C@H](c2cccc(S(=O)(=O)NCCOCCOCCNC(=O)NCCN(CCNC(=O)NCCOCCOCCNS(=O)(=O)c3cccc([C@@H]4CN(C)Cc5c(Cl)cc(Cl)cc54)c3)C(=O)CCCCCCCCCCC(=O)N(CCNC(=O)NCCOCCOCCNS(=O)(=O)c3cccc([C@@H]4CN(C)Cc5c(Cl)cc(Cl)cc54)c3)CCNC(=O)NCCOCCOCCNS(=O)(=O)c3cccc([C@@H]4CN(C)Cc5c(Cl)cc(Cl)cc54)c3)c2)C1` [Example 44, N^1,N^1,N^12,N^12-tetrakis(13-(3-((S)-6,8-dichloro-2-methyl-1,2,3,4-tetrahydroisoquinolin-4-yl)phenylsulfonamido)-4-oxo-8,11-dioxa-3,5-diazatridecyl)dodecanediamide]: the IC50 in experiment [1] is more than 10 µM; in experiment [2], more than 10 µM; in experiment [3], 0.1 to 10 µM.

Consider `CN1Cc2c(Cl)cc(Cl)cc2[C@H](c2cccc(S(=O)(=O)NCCOCCOCCNC(=O)NCCN(CCNC(=O)NCCOCCOCCNS(=O)(=O)c3cccc([C@@H]4CN(C)Cc5c(Cl)cc(Cl)cc54)c3)C(=O)NCCCCCCCCCCCCNC(=O)N(CCNC(=O)NCCOCCOCCNS(=O)(=O)c3cccc([C@@H]4CN(C)Cc5c(Cl)cc(Cl)cc54)c3)CCNC(=O)NCCOCCOCCNS(=O)(=O)c3cccc([C@@H]4CN(C)Cc5c(Cl)cc(Cl)cc54)c3)c2)C1` [Example 45], for which the IC50 in experiment [1] is 0.1 to 10 µM; in experiment [2], 0.1 to 10 µM; in experiment [3] it was more than 10 µM.

`CN1Cc2c(Cl)cc(Cl)cc2[C@H](c2cccc(S(=O)(=O)NCCOCCOCCNC(=O)NCCN(CCNC(=O)NCCOCCOCCNS(=O)(=O)c3cccc([C@@H]4CN(C)Cc5c(Cl)cc(Cl)cc54)c3)C(=O)CCOCCOCCOCCOCCOCCOCCOCCOCCOCCC(=O)N(CCNC(=O)NCCOCCOCCNS(=O)(=O)c3cccc([C@@H]4CN(C)Cc5c(Cl)cc(Cl)cc54)c3)CCNC(=O)NCCOCCOCCNS(=O)(=O)c3cccc([C@@H]4CN(C)Cc5c(Cl)cc(Cl)cc54)c3)c2)C1` [Example 61]: in experiment [1], the “Human NHE3 pIC50” value is given as “C (C NHE3 pIC50 > 7)”. Also, in experiment [2], the “Rat NHE3 pIC50 (prompt)” value was “B (B NHE3 pIC50 5-7)”. The “Rat NHE3 pIC50 (persistent)” value in experiment [3] was “B (B NHE3 pIC50 5-7)”.

Consider `CN1Cc2c(Cl)cc(Cl)cc2[C@H](c2cccc(S(=O)(=O)NCCOCCOCCOCCNC(=O)CCC(CCC(=O)NCCOCCOCCOCCNS(=O)(=O)c3cccc([C@@H]4CN(C)Cc5c(Cl)cc(Cl)cc54)c3)(CCC(=O)NCCOCCOCCOCCNS(=O)(=O)c3cccc([C@@H]4CN(C)Cc5c(Cl)cc(Cl)cc54)c3)NCc3ccc(-c4ccc(Cl)cc4)cc3)c2)C1` [Example 19, 4-((4′-chlorobiphenyl-4-yl)methylamino)-4-(1-(3-((S)-6,8-dichloro-2-methyl-1,2,3,4-tetrahydroisoquinolin-4-yl)phenylsulfonamido)-13-oxo-3,6,9-trioxa-12-azapentadecan-15-yl)-N^1,N^7-bis(2-(2-(2-(2-(3-((S)-6,8-dichloro-2-methyl-1,2,3,4-tetrahydroisoquinolin-4-yl)phenylsulfonamido)ethoxy)ethoxy)ethoxy)ethyl)heptanediamide], for which the IC50 in experiment [1] is more than 10 µM; in experiment [2], more than 10 µM; in experiment [3], less than 0.1 µM.

On to `CN1Cc2c(Cl)cc(Cl)cc2[C@H](c2cccc(S(=O)(=O)NCCOCCOCCNC(=O)CN(CCOCCOCCN(CC(=O)NCCOCCOCCNS(=O)(=O)c3cccc([C@@H]4CN(C)Cc5c(Cl)cc(Cl)cc54)c3)CC(=O)NCCOCCOCCNS(=O)(=O)c3cccc([C@@H]4CN(C)Cc5c(Cl)cc(Cl)cc54)c3)CC(=O)NCCOCCOCCNS(=O)(=O)c3cccc([C@@H]4CN(C)Cc5c(Cl)cc(Cl)cc54)c3)c2)C1` [Example 50], for which the “Human NHE3 pIC50” value in experiment [1] was “B (B NHE3 pIC50 5-7)”.

On to `CN1Cc2c(Cl)cc(Cl)cc2[C@H](c2cccc(S(=O)(=O)NCCOCCOCCNC(=O)CCC(CCC(=O)NCCOCCOCCNS(=O)(=O)c3cccc([C@@H]4CN(C)Cc5c(Cl)cc(Cl)cc54)c3)(CCC(=O)NCCOCCOCCNS(=O)(=O)c3cccc([C@@H]4CN(C)Cc5c(Cl)cc(Cl)cc54)c3)NC(=O)c3ccc(-c4ccc(Cl)cc4)cc3)c2)C1` [Example 35], for which, in experiment [1], the “Human NHE3 pIC50” value is “B (B NHE3 pIC50 5-7)”.

Consider `CN1Cc2c(Cl)cc(Cl)cc2[C@H](c2cccc(S(=O)(=O)NCCOCCOCCN(C)C(=O)CCC(CCC(=O)N(C)CCOCCOCCNS(=O)(=O)c3cccc([C@@H]4CN(C)Cc5c(Cl)cc(Cl)cc54)c3)(CCC(=O)N(C)CCOCCOCCNS(=O)(=O)c3cccc([C@@H]4CN(C)Cc5c(Cl)cc(Cl)cc54)c3)N(C)C)c2)C1` [Example 71], for which the “Human NHE3 pIC50” value in experiment [1] is recorded as “C (C NHE3 pIC50 > 7)”.

With `CN1Cc2c(Cl)cc(Cl)cc2[C@H](c2cccc(S(=O)(=O)NCCOCCOCCNC(=O)NCCN(CCNC(=O)NCCOCCOCCNS(=O)(=O)c3cccc([C@@H]4CN(C)Cc5c(Cl)cc(Cl)cc54)c3)C(=O)NCCCCNC(=O)N(CCNC(=O)NCCOCCOCCNS(=O)(=O)c3cccc([C@@H]4CN(C)Cc5c(Cl)cc(Cl)cc54)c3)CCNC(=O)NCCOCCOCCNS(=O)(=O)c3cccc([C@@H]4CN(C)Cc5c(Cl)cc(Cl)cc54)c3)c2)C1` [Example 60], the “Human NHE3 pIC50” value in experiment [1] was “C (C NHE3 pIC50 > 7)”.
